According to patent EP4813993A1, “COMPOUND, PREPARATION METHOD THEREFOR, AND USE THEREOF” (Sichuan Kelun Pharmaceutical Research Institute Co., Ltd., priority 2023, dated 2025):

What was measured:
[1] = target: T1, Nav1.8 channels (Homo sapiens, UniProt Q9Y5Y9); assay: Manual patch-clamp, current of stably overexpressed Nav1.8 channels (resting state voltage program); format: cell-based
T1 construct: expressed in transfected cells
How it was run: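 Whole-cell manual patch clamp on cells stably overexpressing Nav1.8, held at -120 mV and stepped to 0 mV for 50 ms every 20 s (resting-state protocol). Compounds were perfused in ascending concentrations, each for 5 min or until stable; block of peak current was calculated at steady state.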

[2] = test system: spinal nerve ligation model (SNL); assay: Rat spinal nerve ligation model (SNL), Von Frey test; format: in vivo, SD rats; conditions: for PWT 50% value (g) Post-surgery, Preadministration / PWT 50% value (g) Pre-surgery / PWT 50% value (g) Time 0.5 h / PWT 50% value (g) Time 2 h / PWT 50% value (g) Time 4 h / PWT 50% value (g) Time 6 h / PWT 50% value (g) Time 8 h / PWT 50% value (g) AUC0-8h: SD rats SNL, Mean + SEM, n = 10; for PWT 50% value (g) Post-surgery, Preadministration: baseline before administration; for PWT 50% value (g) Pre-surgery: baseline before surgery; for PWT 50% value (g) Time 0.5 h: 0.5 h after administration; for PWT 50% value (g) Time 2 h: 2 h after administration; for PWT 50% value (g) Time 4 h: 4 h after administration; for PWT 50% value (g) Time 6 h: 6 h after administration; for PWT 50% value (g) Time 8 h: 8 h after administration
Protocol: Experimental Example 8: Pharmacodynamic effect study of compounds in rat spinal nerve ligation model (SNL) Experimental animals: SD rats, male, 180-220 g.
(§1) Compound preparation: 5% (final preparation volume) of DMSO was added to dissolve the test compound, and then 10% (final preparation volume) of Cremophor EL and 85% Saline were sequentially added.
SD rats were anesthetized with isoflurane via inhalation. Each rat was placed in a prone position, and the hair at the surgical site was shaved locally. The surgical site was disinfected with alcohol and iodophor. Under sterile conditions, a 3-4 cm longitudinal incision was made at the level of the lower lumbar/upper sacrum to expose the left paravertebral muscles. Using small sharp-blunt scissors, the paravertebral muscles were bluntly dissected, and the transverse process of L6 was excised. The L4 and L5 spinal nerves were isolated and exposed, and the L5 spinal nerve was ligated with 6-0 silk sutures. The surgical wound was treated with ceftriaxone for anti-inflammation and infection prevention. The muscles and skin were sutured layer by layer, followed by disinfection with iodophor. After the surgery, the animals were placed on a warm electric blanket for heat preservation and returned to the cages for rearing after complete recovery from anesthesia. Postoperative behavioral observations were performed.
2. Administration and test
The Von Frey test was performed once before the surgery. On the 5th and 6th days after surgery, paw-lifting training was performed once each day. Animals with a baseline of 2-5 g were selected for enrollment and grouped based on the 50% PWT values, with 10 animals per group. The next day, a single dose was administered in a blinded manner. The 50% PWT of the animals was measured separately before administration (baseline) and at 0.5 h, 2 h, 4 h, 6 h, or 8 h after administration. The model control group was given normal saline, while the compound groups were given the compounds according to the administration doses in the table below.

[3] = Tissue distribution study (dorsal root ganglia) in SD rats; format: in vivo; conditions: male, rat, oral administration 10 mg/kg
Protocol: Experimental Example 5: Tissue distribution study of compounds in SD rats
Experimental animals: SD rats, male, 6-8 weeks old.
as §1
Experimental design: The test compounds were administered to SD rats as a single dose via oral administration (10 mg/kg; n = 3, 3 time points). Blood samples were collected at 0.5 h, 2 h, and 6 h after oral administration, followed by sacrifice of the animals. Dorsal root ganglia were collected, rinsed with ice-cold normal saline to remove residual blood, blotted dry with absorbent paper, and stored at -70 °C for analysis.
Sample test: The concentrations of the designated compound drugs in plasma and tissues were determined by the LC-MS/MS method.

T1 sequence (Q9Y5Y9 whole entry): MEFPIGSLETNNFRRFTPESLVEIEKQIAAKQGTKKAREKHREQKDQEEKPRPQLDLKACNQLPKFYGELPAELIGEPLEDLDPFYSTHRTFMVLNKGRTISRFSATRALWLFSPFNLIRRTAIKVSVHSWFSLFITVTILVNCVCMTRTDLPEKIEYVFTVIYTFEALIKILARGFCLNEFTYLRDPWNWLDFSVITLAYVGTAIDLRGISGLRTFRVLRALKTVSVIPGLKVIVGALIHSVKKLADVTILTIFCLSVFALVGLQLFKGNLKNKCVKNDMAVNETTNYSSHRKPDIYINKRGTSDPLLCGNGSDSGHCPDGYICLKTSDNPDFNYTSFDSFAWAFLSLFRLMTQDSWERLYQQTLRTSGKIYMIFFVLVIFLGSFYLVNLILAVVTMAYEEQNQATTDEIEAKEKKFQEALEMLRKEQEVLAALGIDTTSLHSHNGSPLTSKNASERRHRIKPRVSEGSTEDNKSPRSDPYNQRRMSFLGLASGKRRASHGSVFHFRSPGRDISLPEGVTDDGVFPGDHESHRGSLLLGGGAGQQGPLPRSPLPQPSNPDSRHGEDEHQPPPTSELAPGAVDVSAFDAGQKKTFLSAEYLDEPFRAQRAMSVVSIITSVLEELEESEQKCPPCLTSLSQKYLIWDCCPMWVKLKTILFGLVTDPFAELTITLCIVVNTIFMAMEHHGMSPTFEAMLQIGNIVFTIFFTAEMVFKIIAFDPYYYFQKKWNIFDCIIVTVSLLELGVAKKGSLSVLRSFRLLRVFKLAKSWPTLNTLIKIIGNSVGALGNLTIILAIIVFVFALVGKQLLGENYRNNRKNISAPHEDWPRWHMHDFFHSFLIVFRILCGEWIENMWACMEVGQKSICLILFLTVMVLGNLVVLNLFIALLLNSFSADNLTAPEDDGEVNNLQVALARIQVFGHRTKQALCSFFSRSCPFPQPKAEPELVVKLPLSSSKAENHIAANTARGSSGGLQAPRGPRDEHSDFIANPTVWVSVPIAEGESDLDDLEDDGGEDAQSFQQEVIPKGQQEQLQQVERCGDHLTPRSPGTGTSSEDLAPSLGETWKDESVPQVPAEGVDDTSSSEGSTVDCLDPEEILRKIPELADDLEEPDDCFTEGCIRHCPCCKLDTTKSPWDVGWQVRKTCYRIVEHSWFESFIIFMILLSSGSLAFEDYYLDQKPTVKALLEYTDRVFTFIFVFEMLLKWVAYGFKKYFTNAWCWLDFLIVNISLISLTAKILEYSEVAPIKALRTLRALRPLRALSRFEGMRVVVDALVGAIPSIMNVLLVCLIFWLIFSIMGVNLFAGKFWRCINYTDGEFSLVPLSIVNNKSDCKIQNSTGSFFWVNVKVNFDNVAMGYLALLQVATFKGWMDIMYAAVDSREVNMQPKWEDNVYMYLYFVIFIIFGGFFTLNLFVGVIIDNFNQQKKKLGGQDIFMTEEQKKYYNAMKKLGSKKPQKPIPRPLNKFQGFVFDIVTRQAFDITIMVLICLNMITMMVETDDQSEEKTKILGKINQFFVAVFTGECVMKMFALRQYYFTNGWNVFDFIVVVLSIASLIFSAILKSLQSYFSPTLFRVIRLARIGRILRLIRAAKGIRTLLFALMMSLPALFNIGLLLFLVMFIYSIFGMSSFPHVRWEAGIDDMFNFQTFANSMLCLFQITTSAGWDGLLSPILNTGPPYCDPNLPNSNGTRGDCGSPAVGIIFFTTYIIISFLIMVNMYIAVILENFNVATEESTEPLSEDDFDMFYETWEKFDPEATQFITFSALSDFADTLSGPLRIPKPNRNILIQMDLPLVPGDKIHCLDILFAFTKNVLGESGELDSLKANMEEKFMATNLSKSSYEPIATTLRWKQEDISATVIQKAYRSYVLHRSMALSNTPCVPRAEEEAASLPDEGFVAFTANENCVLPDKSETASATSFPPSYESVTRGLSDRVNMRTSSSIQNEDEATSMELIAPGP

Compound: COc1c(C2CC(C)(C(F)(F)F)SC2C(=O)Nc2ccnc(C(N)=O)c2)ccc(F)c1F (single isomer, unassigned) [Compound 139-A, 4-(3-(3,4-difluoro-2-methoxyphenyl)-5-methyl-5-(trifluoromethyl)tetrahydrothiophene-2-carboxamido)picolinamide]
- IC50 [1]: 0.06 nM
- Inhibition rate (%) ([1]; concentration of 10 nM, 0.01 µM): 95.31%
- PWT 50% value (g) Post-surgery, Preadministration ([2]; 50 mg/kg group): 2.68 ± 1.05 g
- PWT 50% value (g) Pre-surgery ([2]; 50 mg/kg group): 14.94 ± 2.38 g
- PWT 50% value (g) Time 0.5 h ([2]; 50 mg/kg single dose): 5.78 ± 2.76 g
- PWT 50% value (g) Time 2 h ([2]; 50 mg/kg single dose): 8.76 ± 2.47 g
- PWT 50% value (g) Time 4 h ([2]; 50 mg/kg single dose): 7.73 ± 4.32 g
- PWT 50% value (g) Time 6 h ([2]; 50 mg/kg single dose): 4.9 ± 1.61 g
- PWT 50% value (g) Time 8 h ([2]; 50 mg/kg single dose): 3.57 ± 1.44 g
- PWT 50% value (g) AUC0-8h ([2]; 50 mg/kg single dose): 50.59 ± 15.71 g
- PWT 50% value (g) Post-surgery, Preadministration ([2]; 125 mg/kg group): 2.68 ± 1 g
- PWT 50% value (g) Pre-surgery ([2]; 125 mg/kg group): 13.83 ± 3.18 g
- PWT 50% value (g) Time 0.5 h ([2]; 125 mg/kg single dose): 6.96 ± 3.34 g
- PWT 50% value (g) Time 2 h ([2]; 125 mg/kg single dose): 9.61 ± 3.73 g
- PWT 50% value (g) Time 4 h ([2]; 125 mg/kg single dose): 7.26 ± 3.19 g
- PWT 50% value (g) Time 6 h ([2]; 125 mg/kg single dose): 5.01 ± 1.63 g
- PWT 50% value (g) Time 8 h ([2]; 125 mg/kg single dose): 3.88 ± 1.67 g
- PWT 50% value (g) AUC0-8h ([2]; 125 mg/kg single dose): 52.87 ± 15.06 g
- dose-effect relationship ([2]; rat SNL model): relatively good dose-effect relationship
- differences compared with the model group ([2]; rat SNL model, all time points): significant differences compared with the model group at all time points
- concentration at 0.5 h ([3]; Time 0.5 h): 1070 ng/g
- concentration at 2 h ([3]; Time 2 h): 973 ng/g
- concentration at 6 h ([3]; Time 6 h): 549 ng/g
